Data on 1 molecule can be found in ChEMBL document CHEMBL5058649, “Data for DCP probe BAY 1816032” (2022).

The target of series [1] is L-type calcium channel, dihydropyridine site (Cav1.2 alpha-1C) (Homo sapiens, UniProt Q13936). Kind of series: Inhibition of Calcium Channel L-Type, Dihydropyridine at 10 µM in the Eurofins-Panlabs radioligand binding assay (Eurofins_assay_214600). Details: ligand concentration 0.1 nM, non-specific ligand with concentration 1 µM Nitrendipine, incubation time 90 min, incubation temperature 25 °C. The note with it: Wistar, rat, rat cerebral cortex preparation, probe [3H] Nitrendipine; compound concentration 10 uM; target entry is the homologue from another species.
Sequence of L-type calcium channel, dihydropyridine site (Cav1.2 alpha-1C) (Q13936 whole entry): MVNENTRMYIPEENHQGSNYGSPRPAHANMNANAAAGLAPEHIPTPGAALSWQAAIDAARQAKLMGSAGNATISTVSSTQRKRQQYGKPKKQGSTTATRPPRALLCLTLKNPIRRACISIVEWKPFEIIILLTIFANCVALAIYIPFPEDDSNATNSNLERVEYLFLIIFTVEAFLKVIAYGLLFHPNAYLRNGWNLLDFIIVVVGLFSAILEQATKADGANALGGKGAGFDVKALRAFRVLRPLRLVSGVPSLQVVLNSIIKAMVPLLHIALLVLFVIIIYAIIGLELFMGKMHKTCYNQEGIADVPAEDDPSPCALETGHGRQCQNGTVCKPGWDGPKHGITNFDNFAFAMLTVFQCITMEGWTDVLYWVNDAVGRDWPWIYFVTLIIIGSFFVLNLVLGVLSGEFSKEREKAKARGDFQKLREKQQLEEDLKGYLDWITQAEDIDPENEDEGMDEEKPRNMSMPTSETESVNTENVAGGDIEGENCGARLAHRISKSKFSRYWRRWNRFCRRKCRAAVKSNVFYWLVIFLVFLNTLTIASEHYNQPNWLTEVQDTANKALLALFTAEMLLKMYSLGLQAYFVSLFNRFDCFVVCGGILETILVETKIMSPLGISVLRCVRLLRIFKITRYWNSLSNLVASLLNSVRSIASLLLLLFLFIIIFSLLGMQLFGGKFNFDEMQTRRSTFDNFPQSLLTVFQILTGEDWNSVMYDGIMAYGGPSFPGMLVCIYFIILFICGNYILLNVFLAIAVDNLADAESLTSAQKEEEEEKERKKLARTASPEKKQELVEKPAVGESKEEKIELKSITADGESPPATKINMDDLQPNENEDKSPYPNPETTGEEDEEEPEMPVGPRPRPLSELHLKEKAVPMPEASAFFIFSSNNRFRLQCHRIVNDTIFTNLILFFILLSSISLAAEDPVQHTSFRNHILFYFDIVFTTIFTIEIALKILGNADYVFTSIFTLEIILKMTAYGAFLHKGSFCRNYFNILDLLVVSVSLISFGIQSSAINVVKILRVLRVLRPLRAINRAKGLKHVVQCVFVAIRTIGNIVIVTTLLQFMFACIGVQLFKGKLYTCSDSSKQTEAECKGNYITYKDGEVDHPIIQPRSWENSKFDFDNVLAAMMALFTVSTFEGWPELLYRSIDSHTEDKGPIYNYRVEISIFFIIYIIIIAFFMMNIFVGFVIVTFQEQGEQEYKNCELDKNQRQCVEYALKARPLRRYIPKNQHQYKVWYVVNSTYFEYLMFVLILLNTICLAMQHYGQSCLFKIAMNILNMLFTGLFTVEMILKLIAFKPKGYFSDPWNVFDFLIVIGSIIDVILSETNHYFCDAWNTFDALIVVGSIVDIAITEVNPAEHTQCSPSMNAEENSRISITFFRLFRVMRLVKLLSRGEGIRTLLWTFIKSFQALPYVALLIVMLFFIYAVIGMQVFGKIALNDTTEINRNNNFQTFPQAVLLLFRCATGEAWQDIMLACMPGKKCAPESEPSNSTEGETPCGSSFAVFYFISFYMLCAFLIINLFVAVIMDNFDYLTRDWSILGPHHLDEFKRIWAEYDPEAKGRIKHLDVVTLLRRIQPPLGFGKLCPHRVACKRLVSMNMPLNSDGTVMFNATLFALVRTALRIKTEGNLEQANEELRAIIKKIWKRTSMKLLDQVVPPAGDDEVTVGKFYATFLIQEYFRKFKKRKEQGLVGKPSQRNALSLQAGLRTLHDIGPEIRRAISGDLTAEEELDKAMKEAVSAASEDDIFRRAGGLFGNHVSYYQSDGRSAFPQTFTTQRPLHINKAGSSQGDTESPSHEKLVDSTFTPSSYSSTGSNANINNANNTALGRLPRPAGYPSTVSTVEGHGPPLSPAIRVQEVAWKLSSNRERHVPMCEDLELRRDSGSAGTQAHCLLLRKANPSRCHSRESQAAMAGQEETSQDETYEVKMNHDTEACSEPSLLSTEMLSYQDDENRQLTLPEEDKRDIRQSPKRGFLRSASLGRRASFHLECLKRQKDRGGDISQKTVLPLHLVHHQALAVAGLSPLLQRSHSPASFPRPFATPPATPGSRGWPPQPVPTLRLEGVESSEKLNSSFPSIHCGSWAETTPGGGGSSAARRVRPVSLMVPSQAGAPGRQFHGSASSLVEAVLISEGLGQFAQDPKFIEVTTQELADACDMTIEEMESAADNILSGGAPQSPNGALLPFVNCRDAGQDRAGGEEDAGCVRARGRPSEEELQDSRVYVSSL

Series [2] has as its target SRSF protein kinase 2 (Homo sapiens) (UniProt P78362). The series is described as follows: SRPK2 DiscoveRx kinase panel. The note with it: Compound concentration 1.0 uM.
For series [3], the target named is Calcium/calmodulin-dependent protein kinase type 1B (Homo sapiens) (UniProt Q6P2M8). Kind of series: CAMK1B DiscoveRx kinase panel. Particulars: Compound concentration 1.0 uM; call rule not given here.
Sequence of Calcium/calmodulin-dependent protein kinase type 1B (Homo sapiens) (Q6P2M8 whole entry): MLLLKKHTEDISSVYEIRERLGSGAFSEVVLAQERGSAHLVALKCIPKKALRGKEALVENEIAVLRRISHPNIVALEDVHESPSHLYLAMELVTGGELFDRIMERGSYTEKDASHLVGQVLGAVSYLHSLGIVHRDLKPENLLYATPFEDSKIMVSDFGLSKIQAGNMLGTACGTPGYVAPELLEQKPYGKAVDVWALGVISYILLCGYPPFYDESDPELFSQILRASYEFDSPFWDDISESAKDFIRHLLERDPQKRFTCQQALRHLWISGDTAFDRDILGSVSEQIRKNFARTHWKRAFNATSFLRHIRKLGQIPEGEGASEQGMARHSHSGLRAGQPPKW
The target in series [4] is cGMP-dependent protein kinase 2 (Homo sapiens) (UniProt Q13237). Kind of series: PRKG2 DiscoveRx kinase panel. The note with it: Compound concentration 1.0 uM.
Sequence of cGMP-dependent protein kinase 2 (Homo sapiens) (Q13237 whole entry): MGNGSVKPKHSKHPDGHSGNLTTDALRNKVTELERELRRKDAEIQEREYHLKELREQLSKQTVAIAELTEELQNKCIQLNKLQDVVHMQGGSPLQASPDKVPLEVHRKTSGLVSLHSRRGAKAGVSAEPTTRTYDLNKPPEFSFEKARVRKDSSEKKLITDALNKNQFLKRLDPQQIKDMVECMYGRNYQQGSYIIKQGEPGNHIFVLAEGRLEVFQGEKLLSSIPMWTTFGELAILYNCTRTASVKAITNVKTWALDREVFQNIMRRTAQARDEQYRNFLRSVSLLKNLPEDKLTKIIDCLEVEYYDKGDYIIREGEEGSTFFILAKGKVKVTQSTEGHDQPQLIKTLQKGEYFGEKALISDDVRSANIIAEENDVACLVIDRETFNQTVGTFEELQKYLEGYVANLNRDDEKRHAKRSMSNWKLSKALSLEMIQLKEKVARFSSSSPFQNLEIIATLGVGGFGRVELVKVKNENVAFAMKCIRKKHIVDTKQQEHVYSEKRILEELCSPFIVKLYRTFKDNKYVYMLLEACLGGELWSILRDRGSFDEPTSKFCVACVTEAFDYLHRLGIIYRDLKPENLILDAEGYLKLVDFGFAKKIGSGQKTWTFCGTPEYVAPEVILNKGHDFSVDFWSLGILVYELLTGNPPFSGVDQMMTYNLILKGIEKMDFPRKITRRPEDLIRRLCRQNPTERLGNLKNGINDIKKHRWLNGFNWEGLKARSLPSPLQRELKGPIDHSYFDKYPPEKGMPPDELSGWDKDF

Molecules are shown by their SMILES.

Sequence of SRSF protein kinase 2 (Homo sapiens) (P78362 whole entry, looked up): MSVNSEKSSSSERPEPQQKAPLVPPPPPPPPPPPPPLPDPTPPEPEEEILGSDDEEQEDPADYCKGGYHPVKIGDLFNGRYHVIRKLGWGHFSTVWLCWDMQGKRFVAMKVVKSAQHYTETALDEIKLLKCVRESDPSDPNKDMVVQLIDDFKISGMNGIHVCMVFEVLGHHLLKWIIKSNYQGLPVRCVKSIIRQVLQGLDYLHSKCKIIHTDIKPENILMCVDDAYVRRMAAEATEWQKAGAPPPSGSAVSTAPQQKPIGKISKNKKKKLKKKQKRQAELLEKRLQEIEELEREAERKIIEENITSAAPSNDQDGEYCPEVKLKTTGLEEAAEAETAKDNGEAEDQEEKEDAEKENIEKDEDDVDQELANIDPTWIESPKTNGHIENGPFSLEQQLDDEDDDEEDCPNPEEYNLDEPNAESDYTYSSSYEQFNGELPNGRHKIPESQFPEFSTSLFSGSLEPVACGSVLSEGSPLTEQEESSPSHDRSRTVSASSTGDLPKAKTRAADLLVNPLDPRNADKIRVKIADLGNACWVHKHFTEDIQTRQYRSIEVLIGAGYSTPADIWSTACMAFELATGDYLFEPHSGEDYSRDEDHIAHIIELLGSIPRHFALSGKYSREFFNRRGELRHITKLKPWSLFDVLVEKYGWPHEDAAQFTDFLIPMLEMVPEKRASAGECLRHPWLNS

For orientation: inhibition means the change of the read-out against control, counted positive when it falls. One may read the residual activity as the signal under treatment as a percentage of the control signal. For the molecule `COc1cnccc1Nc1nc(-c2nn(Cc3c(F)cc(OCCO)cc3F)c3ccccc23)ncc1OC`, in series [1], the inhibition at 90 min, 10 µM is given as 8% (not active). Also, the residual activity in series [2] was 77%; in series [3], 95%; in series [4], 95%.
